# Assay results taken from patent US8686016B2, “Schweinfurthins and uses thereof” (The United States of America, as represented by the …, priority 2009, dated 2014).
# Entries after “also recorded” stand apart in the source; their conditions may differ.
# How the values were obtained:
# SF-268 = experiment: NCI60 cell line response to SA, SF-268; assay type: cell-based, human; details: SF-268, doubling time 33.1 hours
# MPNST K14553 cells = experiment: XTT cell proliferation assay, K14553; assay type: cell-based, mouse
# Method: Establishment of NPcis MPNST cell lines: Mice were euthanized by CO2 asphyxiation and tumors were dissected. The tumor volume was measured. The tumor was then cut in half, and ½ fixed in 4% PFA. The other half was rinsed, then cut into 24 pieces of approximately equal size. Each piece was diced with a razor blade and placed in 1 well of a 24 well plate, along with 625 μL of Triple Express (Gibco, Grand Island, N.Y., USA) and 5 μL of recombinant DNAse (Roche, Indianapolis, Ind., USA). Tumors were triturated, then incubated at 37° C. in a 5% CO2 incubator for 2-5 hours, with an additional trituration halfway through incubation time. At the end of the incubation, tumor pieces were triturated again, and suspended cells were transferred to 1.5 mL eppendorf tubes. […] Both plates were monitored for cell growth, grown up to 10 cm plates, and frozen down in 10% DMSO. […]
# XTT Cell Proliferation Assay: Cells were seeded into 96-well plates at a density of 2,000 cells/well and allowed to reattach overnight. Cells were treated with SA, synthetic analogs, camptothecin (NCI Chemotherapeutics Repository, Md., USA), or DMSO control at the indicated concentrations continuously for 48 hours followed by assay in the 96-well plate for relative viable cell number using the dye […] (XTT) and a Wallac-Victor 2 plate reader (Perkin-Elmer, Waltham, Mass., USA). […]
# MPNST T265 cells = experiment: XTT cell proliferation assay, T265; assay type: cell-based, human
# Method: (§1) XTT Cell Proliferation Assay: Cells were seeded into 96-well plates at a density of 2,000 cells/well and allowed to reattach overnight. Cells were treated with SA, synthetic analogs, camptothecin (NCI Chemotherapeutics Repository, Md., USA), or DMSO control at the indicated concentrations continuously for 48 hours followed by assay in the 96-well plate for relative viable cell number using the dye […] (XTT) and a Wallac-Victor 2 plate reader (Perkin-Elmer, Waltham, Mass., USA). Absorbance was determined at 450 nm with 650 nm as a reference reading. Primary astrocytes were additionally assayed at a 96 hour time point.
# Cell lines and culture: Human MPNST cell lines (STS26T and T265) were obtained from the Pediatric Oncology Branch, NCI (Bethesda, Md., USA).
# [1] = system: primary astrocytes from wt, Nf1−/+, and NPcis mice; experiment: XTT cell proliferation assay, primary astrocytes; assay type: cell-based, mouse; details: for inhibition of proliferation: XTT
# Method: as §1
# Cell culture: Primary astrocytes were prepared as described previously (Hawes et al., J. Biomol. Screen, 2008, 13:795-803) from 1 day old neonatal brains collected from wt, Nf1−/+, and Nf1−/+; Trp53−/+ cis mice.
smiles,measurement,setting,value
"CC(C)=CCC/C(C)=C/Cc1c(O)cc(/C=C/c2cc(O)c3c(c2)C[C@@H]2C(C)(C)[C@H](O)[C@H](O)C[C@@]2(C)O3)cc1O [SA, Schweinfurthin A]",logGI50,SF-268,−5.62
same,inhibition of proliferation (percent viability versus control),MPNST K14553 cells,dose dependent inhibition of proliferation; also recorded: sensitive
same,inhibition of proliferation (percent viability versus control),MPNST T265 cells,potent inhibition of cell proliferation; also recorded: sensitive
same,inhibition of proliferation,[1]; 48 hours,does not inhibit; also recorded: are not; also recorded: resistant
same,inhibition of proliferation,[1]; 96 hrs continuous treatment,resistant
same,growth inhibition,[1]; SA concentrations several log-fold higher than the GI50 for KR158,≤ 40%
same,inhibition of Nf1 heterozygous cells,[1]; at concentrations of 1 μM,no inhibition
